These results are taken from PMC9287381, “Structure-based rational design of an enhanced fluorogen-activating protein for fluorogens based on GFP chromophore” (Communications Biology, 2022).

What all share (assay): spectrofluorometric titration of protein with chromophore
The target of one experiment is T1, pFAST.
T1 construct: gene pyp; multipoint directed-evolution variant of FAST (itself engineered PYP); E. coli BL21(DE3)
It counts as binding, Halorhodospira halophila. The conditions noted are these: 0.10 µM protein, 25 °C. The text has this: spectrofluorometric titration of protein with chromophore on pFAST

For experiment [1], the target named is T2, FAST (Fluorescence-Activating and absorption-Shifting Tag) (Halorhodospira halophila, UniProt P16113, C69G/D97P/F96I/M100R/Q99S/R52Y/T101G/T95M/Y94W/Y98T).
T2 construct: gene pyp; engineered full-length PYP variant (~14 kDa); E. coli BL21(DE3)
T2 sequence (P16113 1-125 R52Y/C69G/Y94W/T95M/F96I/D97P/Y98T/Q99S/M100R/T101G): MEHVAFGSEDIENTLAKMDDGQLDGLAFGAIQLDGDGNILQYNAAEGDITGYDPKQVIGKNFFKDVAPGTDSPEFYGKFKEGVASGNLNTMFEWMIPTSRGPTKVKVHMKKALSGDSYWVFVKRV
Type of experiment: binding. The text has this:
(§1) spectrofluorometric titration of protein with chromophore on FAST (Fluorescence-Activating and absorption-Shifting Tag)

The target of experiment [2] is T3, FAST (Fluorescence-Activating and absorption-Shifting Tag) (Halorhodospira halophila, UniProt P16113, R52L/C69G/Y94W/T95M/F96I/D97P/Y98T/Q99S/M100R/T101G).
T3 construct: gene pyp; engineered full-length PYP variant (~14 kDa); E. coli BL21(DE3)
T3 sequence (P16113 1-125 R52L/C69G/Y94W/T95M/F96I/D97P/Y98T/Q99S/M100R/T101G): T2 sequence (P16113 1-125 R52Y/C69G/Y94W/T95M/F96I/D97P/Y98T/Q99S/M100R/T101G) with Y52L
It counts as binding. To be noted: 0.10 µM protein, 25 °C.
From the text: as §1

Experiment [3] concerns the target T4, FAST (Fluorescence-Activating and absorption-Shifting Tag) (Halorhodospira halophila, UniProt P16113, C69G/Y94W/T95M/F96I/D97P/Y98T/Q99S/M100R/T101G).
T4 construct: gene pyp; engineered full-length PYP variant (~14 kDa); E. coli BL21(DE3)
T4 sequence (P16113 1-125 C69G/Y94W/T95M/F96I/D97P/Y98T/Q99S/M100R/T101G): T2 sequence (P16113 1-125 R52Y/C69G/Y94W/T95M/F96I/D97P/Y98T/Q99S/M100R/T101G) with Y52R
Type of experiment: binding. To be noted: 0.10 µM protein, 25 °C.
From the text: as §1

The target in experiment [4] is T5, FAST (Fluorescence-Activating and absorption-Shifting Tag) (Halorhodospira halophila, UniProt P16113, R52Y/C69G/Y94W/T95M/F96I/D97P/Y98T/Q99S/M100R/T101G).
T5 construct: gene pyp; engineered full-length PYP variant (~14 kDa); E. coli BL21(DE3)
T5 sequence (P16113 1-125 R52Y/C69G/Y94W/T95M/F96I/D97P/Y98T/Q99S/M100R/T101G): T2 sequence (P16113 1-125 R52Y/C69G/Y94W/T95M/F96I/D97P/Y98T/Q99S/M100R/T101G)
Type of experiment: binding. The conditions noted are these: 0.10 µM protein, 25 °C.
From the text: as §1

Experiment [5] concerns the target T6, FAST (Fluorescence-Activating and absorption-Shifting Tag) (Halorhodospira halophila, UniProt P16113, R52E/C69G/Y94W/T95M/F96I/D97P/Y98T/Q99S/M100R/T101G).
T6 construct: gene pyp; engineered full-length PYP variant (~14 kDa); E. coli BL21(DE3)
T6 sequence (P16113 1-125 R52E/C69G/Y94W/T95M/F96I/D97P/Y98T/Q99S/M100R/T101G): T2 sequence (P16113 1-125 R52Y/C69G/Y94W/T95M/F96I/D97P/Y98T/Q99S/M100R/T101G) with Y52E
It counts as binding. The conditions noted are these: 0.10 µM protein, 25 °C. The text has this:
(§2) spectrofluorometric titration of protein with chromophore on FAST (Fluorescence-Activating and absorption-Shifting Tag) | studied their properties in complex with N871b fluorogen

Experiment [6] deals with T7, FAST (Fluorescence-Activating and absorption-Shifting Tag) (Halorhodospira halophila, UniProt P16113, R52E/D65R/C69G/Y94W/T95M/F96I/D97P/Y98T/Q99S/M100R/T101G).
T7 construct: gene pyp; engineered full-length PYP variant (~14 kDa); E. coli BL21(DE3)
T7 sequence (P16113 1-125 R52E/D65R/C69G/Y94W/T95M/F96I/D97P/Y98T/Q99S/M100R/T101G): T2 sequence (P16113 1-125 R52Y/C69G/Y94W/T95M/F96I/D97P/Y98T/Q99S/M100R/T101G) with Y52E, D65R
It counts as binding. The conditions noted are these: 0.10 µM protein, 25 °C.
From the text: as §2

Experiment [7] concerns the target T8, FAST (Fluorescence-Activating and absorption-Shifting Tag) (Halorhodospira halophila, UniProt P16113, C69G/Y94W/T95M/F96I/D97P/Y98T/Q99E/M100R/T101G).
T8 construct: gene pyp; engineered full-length PYP variant (~14 kDa); E. coli BL21(DE3)
T8 sequence (P16113 1-125 C69G/Y94W/T95M/F96I/D97P/Y98T/Q99E/M100R/T101G): T2 sequence (P16113 1-125 R52Y/C69G/Y94W/T95M/F96I/D97P/Y98T/Q99S/M100R/T101G) with Y52R, S99E
Type of experiment: binding. To be noted: 0.10 µM protein, 25 °C.

Experiment [8] concerns the target T9, FAST (Fluorescence-Activating and absorption-Shifting Tag) (Halorhodospira halophila, UniProt P16113, C69G/Y94W/T95M/F96I/D97P/Y98T/Q99R/M100R/T101G).
T9 construct: gene pyp; engineered full-length PYP variant (~14 kDa); E. coli BL21(DE3)
T9 sequence (P16113 1-125 C69G/Y94W/T95M/F96I/D97P/Y98T/Q99R/M100R/T101G): T2 sequence (P16113 1-125 R52Y/C69G/Y94W/T95M/F96I/D97P/Y98T/Q99S/M100R/T101G) with Y52R, S99R
Type of experiment: binding. The conditions noted are these: 0.10 µM protein, 25 °C.

In experiment [9] the target is T10, FAST (Fluorescence-Activating and absorption-Shifting Tag) (Halorhodospira halophila, UniProt P16113, C69G/Y94W/T95M/F96I/D97P/Y98T/Q99K/M100R/T101G).
T10 construct: gene pyp; engineered full-length PYP variant (~14 kDa); E. coli BL21(DE3)
T10 sequence (P16113 1-125 C69G/Y94W/T95M/F96I/D97P/Y98T/Q99K/M100R/T101G): T2 sequence (P16113 1-125 R52Y/C69G/Y94W/T95M/F96I/D97P/Y98T/Q99S/M100R/T101G) with Y52R, S99K
Type of experiment: binding. To be noted: 0.10 µM protein, 25 °C.

In experiment [10] the target is T11, FAST (Fluorescence-Activating and absorption-Shifting Tag) (Halorhodospira halophila, UniProt P16113, D65K/C69G/Y94W/T95M/F96I/D97P/Y98T/Q99S/M100R/T101G).
T11 construct: gene pyp; engineered full-length PYP variant (~14 kDa); E. coli BL21(DE3)
T11 sequence (P16113 1-125 D65K/C69G/Y94W/T95M/F96I/D97P/Y98T/Q99S/M100R/T101G): T2 sequence (P16113 1-125 R52Y/C69G/Y94W/T95M/F96I/D97P/Y98T/Q99S/M100R/T101G) with Y52R, D65K
It counts as binding. To be noted: 0.10 µM protein, 25 °C. The source says:
(§3) spectrofluorometric titration of protein with chromophore on FAST (Fluorescence-Activating and absorption-Shifting Tag) | all the S99 mutants, P73S, P68K, D65K

For experiment [11], the target named is T12, FAST (Fluorescence-Activating and absorption-Shifting Tag) (Halorhodospira halophila, UniProt P16113, P68K/C69G/Y94W/T95M/F96I/D97P/Y98T/Q99S/M100R/T101G).
T12 construct: gene pyp; engineered full-length PYP variant (~14 kDa); E. coli BL21(DE3)
T12 sequence (P16113 1-125 P68K/C69G/Y94W/T95M/F96I/D97P/Y98T/Q99S/M100R/T101G): T2 sequence (P16113 1-125 R52Y/C69G/Y94W/T95M/F96I/D97P/Y98T/Q99S/M100R/T101G) with Y52R, P68K
It counts as binding. The conditions noted are these: 0.10 µM protein, 25 °C.
From the text: as §3

The target in experiment [12] is T13, FAST (Fluorescence-Activating and absorption-Shifting Tag) (Halorhodospira halophila, UniProt P16113, C69G/P73S/Y94W/T95M/F96I/D97P/Y98T/Q99S/M100R/T101G).
T13 construct: gene pyp; engineered full-length PYP variant (~14 kDa); E. coli BL21(DE3)
T13 sequence (P16113 1-125 C69G/P73S/Y94W/T95M/F96I/D97P/Y98T/Q99S/M100R/T101G): T2 sequence (P16113 1-125 R52Y/C69G/Y94W/T95M/F96I/D97P/Y98T/Q99S/M100R/T101G) with Y52R, P73S
Type of experiment: binding. The conditions noted are these: 0.10 µM protein, 25 °C.
From the text: as §3

Positions count from the first letter of the chain named.

Turning to `COc1cc(O)ccc1/C=C1N=C(/C=C/c2cccs2)N(C)C\1=O` [MCL.1b], the Kd at pFAST turned out to be 0.023 ± 0.003 µM; in [1], 0.27 ± 0.06 µM; in experiment [2], 0.44 ± 0.2 µM; in experiment [3], 0.2 ± 0.04 µM.

`COc1cc(O)ccc1/C=C1N=C(/C=C/c2ccccn2)N(C)C\1=O` [MCL.1f]: the Kd at pFAST is 0.029 ± 0.005 µM; in [1] it was 0.31 ± 0.05 µM; in experiment [2], 0.39 ± 0.1 µM; in [3], 0.27 ± 0.04 µM.

Regarding `COc1cc(O)ccc1/C=C1\N=C2C=C(/C=C/c3ccncc3)C=CN2C1=O` [MCL.3a], the Kd at pFAST stood at 0.025 ± 0.002 µM; in experiment [4], 0.11 ± 0.02 µM; in [2], 0.06 ± 0.01 µM; in experiment [3] it was 0.08 ± 0.01 µM.

As for `COc1cc(O)ccc1/C=C1N=C(/C=C/c2ccncc2)N(C)C\1=O` [N871b], the Kd worked out at 1300 ± 70 nM in [5]; 1360 ± 220 nM in [6]; 0.04 ± 0.002 µM on pFAST; 210 ± 10 nM in experiment [7]; 240 ± 10 nM in [8]; 270 ± 10 nM in experiment [9]. Also, the Kd in [1] was 0.24 ± 0.02 µM; in [2] it was 0.27 ± 0.01 µM; in [3], 0.33 ± 0.01 µM; in [10] it was 250 ± 10 nM; in [11], 220 ± 10 nM; in experiment [12] it was 170 ± 10 nM.

By Kd is commonly meant a measure of binding affinity in units of concentration.
